Measured values reported in patent US20220249441A1, “Homodimeric Tobramycin Adjuvant Repurposes Novobiocin as an Effective Antibacterial Agent Against Gram-Negative Bacteria” (priority 2019, published 2022).

Experiments:
[1] = system: P. aeruginosa; assay: Checkerboard assay (antibiotic + adjuvant combination MIC); assay type: cell-based, Pseudomonas aeruginosa; conditions: compound at 8 μM; for MIC of Aztreonam + compound / MIC of Ceftazidime + compound / MIC of Imipenem + compound / MIC of Piperacillin + compound: P. aeruginosa PAO1
[2] = system: P. aeruginosa PAO1 and efflux deficient mutants, MDR/XDR isolates; assay: microbe, parasite or virus in culture; assay type: cell-based, Pseudomonas aeruginosa
Procedure: Antimicrobial Susceptibility Assay. The in vitro antimicrobial activity of all compounds/antibiotics against a panel of bacteria was evaluated by microbroth dilution method in accordance with the Clinical and Laboratory Standards Institute (CLSI) guidelines (using ATCC strains as quality control strains) (54). […] The broth with or without bacterial cells was used as positive or negative control, respectively.

[3] = system: panel of Gram-positive and Gram-negative bacteria; assay: Antimicrobial susceptibility assay against a panel of bacteria; assay type: cell-based; conditions: some isolates
Procedure: Antimicrobial Susceptibility Assay. The in vitro antimicrobial activity of all compounds/antibiotics against a panel of bacteria was evaluated by microbroth dilution method in accordance with the Clinical and Laboratory Standards Institute (CLSI) guidelines (using ATCC strains as quality control strains) (54). Overnight grown bacterial cultures were diluted in saline to achieve a 0.5 McFarland turbidity, followed by 1:50 dilution in Mueller-Hinton broth (MHB) for inoculation to a final concentration of approximately 5×10^5 CFU/mL. […] The lowest concentration that prevented the visible growth of bacteria was defined as the MIC for each antimicrobial agent. The broth with or without bacterial cells was used as positive or negative control, respectively.

[4] = PAO200 (first column so headed)
[5] = PAO200 (second column so headed)

## Cl.Cl.Cl.Cl.Cl.NC[C@H]1O[C@H](O[C@H]2[C@H](OCCCCCCCCCCCCN3CCN(c4cc5c(cc4F)c(=O)c(C(=O)O)cn5C4CC4)CC3)[C@@H](O)[C@H](N)C[C@@H]2N)[C@H](N)C[C@@H]1O [Compound 24]
[1]
  MIC of Aztreonam + compound: 0.5 µg/mL
  MIC of Ceftazidime + compound: 0.25 µg/mL
  MIC of Imipenem + compound: 1 µg/mL
  MIC of Piperacillin + compound: 2 µg/mL
[1]; PA 259-96918
  MIC of ATM in the presence of compound: 8 µg/mL
  MIC of CAZ in the presence of compound: 128 µg/mL
  MIC of IPM in the presence of compound: 16 µg/mL
[1]; PA 260-97103
  MIC of ATM in the presence of compound: 0.25 µg/mL
  MIC of CAZ in the presence of compound: 0.25 µg/mL
  MIC of IPM in the presence of compound: 2 µg/mL
[1]; PA 262-101856
  MIC of ATM in the presence of compound: 16 µg/mL
  MIC of CAZ in the presence of compound: 4 µg/mL
  MIC of IPM in the presence of compound: 8 µg/mL
[1]; PA 264-104354
  MIC of ATM in the presence of compound: 16 µg/mL
  MIC of CAZ in the presence of compound: 64 µg/mL
  MIC of IPM in the presence of compound: 8 µg/mL
[1]; PA 86052
  MIC of ATM in the presence of compound: 4 µg/mL
  MIC of CAZ in the presence of compound: 4 µg/mL
  MIC of IPM in the presence of compound: 4 µg/mL
[1]; PA 88949
  MIC of ATM in the presence of compound: 8 µg/mL
  MIC of CAZ in the presence of compound: 32 µg/mL
  MIC of IPM in the presence of compound: 64 µg/mL
[1]; PA 91433
  MIC of ATM in the presence of compound: 8 µg/mL
  MIC of CAZ in the presence of compound: 0.5 µg/mL
  MIC of IPM in the presence of compound: 8 µg/mL
[1]; PA 100036
  MIC of ATM in the presence of compound: 8 µg/mL
  MIC of CAZ in the presence of compound: 4 µg/mL
  MIC of IPM in the presence of compound: 4 µg/mL
[1]; PA 101243
  MIC of ATM in the presence of compound: 0.25 µg/mL
  MIC of CAZ in the presence of compound: 4 µg/mL
  MIC of IPM in the presence of compound: 4 µg/mL
[1]; PA 101885
  MIC of ATM in the presence of compound: 4 µg/mL
  MIC of CAZ in the presence of compound: 4 µg/mL
  MIC of IPM in the presence of compound: 2 µg/mL
[1]; PA 107092
  MIC of ATM in the presence of compound: 32 µg/mL
  MIC of CAZ in the presence of compound: 64 µg/mL
  MIC of IPM in the presence of compound: 16 µg/mL
[1]; PA 108590
  MIC of ATM in the presence of compound: 0.13 µg/mL
  MIC of CAZ in the presence of compound: 1 µg/mL
  MIC of IPM in the presence of compound: 0.5 µg/mL
[1]; PA 109084
  MIC of ATM in the presence of compound: 32 µg/mL
  MIC of CAZ in the presence of compound: 32 µg/mL
  MIC of IPM in the presence of compound: 8 µg/mL
[1]; PA 114228
  MIC of ATM in the presence of compound: 8 µg/mL
  MIC of CAZ in the presence of compound: 4 µg/mL
  MIC of IPM in the presence of compound: 1 µg/mL
[1]; PA O200 (efflux-deficient)
  MIC of ATM in the presence of compound: 0.03 µg/mL
  MIC of CAZ in the presence of compound: 0.13 µg/mL
  MIC of IPM in the presence of compound: 1 µg/mL
[1]; PA O750 (efflux-deficient)
  MIC of ATM in the presence of compound: 0.13 µg/mL
  MIC of CAZ in the presence of compound: 0.01 µg/mL
  MIC of IPM in the presence of compound: 2 µg/mL
[1]; PAO1
  MIC of ATM in the presence of compound: 0.5 µg/mL
  MIC of CAZ in the presence of compound: 0.25 µg/mL
  MIC of IPM in the presence of compound: 1 µg/mL
[2]; PA0750 (efflux-deficient)
  MIC: 2 µg/mL
[2]; PAO1 (wild-type)
  MIC: 32 µg/mL
[2]; [4]
  MIC: 4 µg/mL
[2]; [5]
  MIC: 2 µg/mL
[3]
  intrinsic antimicrobial activity: some modest residual activity

## Cl.Cl.Cl.Cl.Cl.Cl.NC[C@H]1O[C@H](O[C@H]2[C@H](OCCCCCCCCCCCCN3CCN(c4cc5c(cc4F)c(=O)c(C(=O)O)cn5C4CC4)CC3)[C@@H](O[C@H]3O[C@H](CO)[C@@H](O)[C@H](N)[C@H]3O)[C@H](N)C[C@@H]2N)[C@H](N)C[C@@H]1O [Compound 21, Tobramycin-ciprofloxacin]
[1]
  MIC of Aztreonam + compound: 0.25 µg/mL
  MIC of Ceftazidime + compound: 0.25 µg/mL
  MIC of Imipenem + compound: 0.5 µg/mL
  MIC of Piperacillin + compound: 2 µg/mL
  resistant isolates in which CLSI breakpoint was attained for aztreonam: twelve out of thirteen
  resistant isolates in which CLSI breakpoint was attained for ceftazidime: four out of eleven
  resistant isolates in which CLSI breakpoint was attained for imipenem: ten out of seventeen
[1]; PA 259-96918
  MIC of ATM in the presence of compound: 8 µg/mL
  MIC of CAZ in the presence of compound: 64 µg/mL
  MIC of IPM in the presence of compound: 16 µg/mL
[1]; PA 260-97103
  MIC of ATM in the presence of compound: 4 µg/mL
  MIC of CAZ in the presence of compound: 4 µg/mL
  MIC of IPM in the presence of compound: 2 µg/mL
[1]; PA 262-101856
  MIC of ATM in the presence of compound: 4 µg/mL
  MIC of CAZ in the presence of compound: 4 µg/mL
  MIC of IPM in the presence of compound: 4 µg/mL
[1]; PA 264-104354
  MIC of ATM in the presence of compound: 8 µg/mL
  MIC of CAZ in the presence of compound: 16 µg/mL
  MIC of IPM in the presence of compound: 4 µg/mL
[1]; PA 86052
  MIC of ATM in the presence of compound: 8 µg/mL
  MIC of CAZ in the presence of compound: 32 µg/mL
  MIC of IPM in the presence of compound: 8 µg/mL
[1]; PA 88949
  MIC of ATM in the presence of compound: 8 µg/mL
  MIC of CAZ in the presence of compound: 32 µg/mL
  MIC of IPM in the presence of compound: 8 µg/mL
[1]; PA 91433
  MIC of ATM in the presence of compound: 4 µg/mL
  MIC of CAZ in the presence of compound: 2 µg/mL
  MIC of IPM in the presence of compound: 2 µg/mL
[1]; PA 100036
  MIC of ATM in the presence of compound: 4 µg/mL
  MIC of CAZ in the presence of compound: 2 µg/mL
  MIC of IPM in the presence of compound: 2 µg/mL
[1]; PA 101243
  MIC of ATM in the presence of compound: 4 µg/mL
  MIC of CAZ in the presence of compound: 8 µg/mL
  MIC of IPM in the presence of compound: 2 µg/mL
[1]; PA 101885
  MIC of ATM in the presence of compound: 1 µg/mL
  MIC of CAZ in the presence of compound: 1 µg/mL
  MIC of IPM in the presence of compound: 2 µg/mL
[1]; PA 107092
  MIC of ATM in the presence of compound: 8 µg/mL
  MIC of CAZ in the presence of compound: 16 µg/mL
  MIC of IPM in the presence of compound: 8 µg/mL
[1]; PA 108590
  MIC of ATM in the presence of compound: 0.5 µg/mL
  MIC of CAZ in the presence of compound: 0.5 µg/mL
  MIC of IPM in the presence of compound: 0.25 µg/mL
[1]; PA 109084
  MIC of ATM in the presence of compound: 16 µg/mL
  MIC of CAZ in the presence of compound: 16 µg/mL
  MIC of IPM in the presence of compound: 8 µg/mL
[1]; PA 114228
  MIC of ATM in the presence of compound: 2 µg/mL
  MIC of CAZ in the presence of compound: 0.5 µg/mL
  MIC of IPM in the presence of compound: 2 µg/mL
[1]; PA O200 (efflux-deficient)
  MIC of ATM in the presence of compound: 0.03 µg/mL
  MIC of CAZ in the presence of compound: 0.06 µg/mL
  MIC of IPM in the presence of compound: 1 µg/mL
[1]; PA O750 (efflux-deficient)
  MIC of ATM in the presence of compound: 0.06 µg/mL
  MIC of CAZ in the presence of compound: 0.03 µg/mL
  MIC of IPM in the presence of compound: 0.5 µg/mL
[1]; PAO1
  MIC of ATM in the presence of compound: 0.25 µg/mL
  MIC of CAZ in the presence of compound: 0.25 µg/mL
  MIC of IPM in the presence of compound: 0.5 µg/mL
[2]; PA0750 (efflux-deficient)
  MIC: 2 µg/mL
[2]; PAO1 (wild-type)
  MIC: 32 µg/mL
[2]; [4]
  MIC: 4 µg/mL
[2]; [5]
  MIC: 2 µg/mL
[3]
  intrinsic antimicrobial activity: some modest residual activity
